# Measurements published in PubChem BioAssay (NCI).
# Several values for one entry are separate records, joined by “and”; a condition that tells them apart may be missing. Equal entries are not always repeated.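 Exposure lasted 48 hours, with cells grown in 96-well plates and compounds tested at five concentrations. GI50 = concentration required for 50% inhibition of growth. TGI marks complete inhibition of growth.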
# Key:
# Experiment in all cases: NCI anticancer screen, dose series, 48 h
# MALME-3M melanoma = tested on: MALME-3M melanoma
# NCI-H23 lung = tested on: NCI-H23 lung
# NCI-H522 lung = tested on: NCI-H522 lung
# OVCAR-3 ovarian = tested on: OVCAR-3 ovarian
# RPMI-8226 leukemia = tested on: RPMI-8226 leukemia
# SF-539 CNS = tested on: SF-539 CNS
# SK-MEL-5 melanoma = tested on: SK-MEL-5 melanoma
# SN12C renal = tested on: SN12C renal
# UACC-257 melanoma = tested on: UACC-257 melanoma
# UO-31 renal = tested on: UO-31 renal
SMILES,GI50 (MALME-3M melanoma) [µM],TGI (MALME-3M melanoma) [µM],GI50 (NCI-H23 lung) [µM],TGI (NCI-H23 lung) [µM],GI50 (NCI-H522 lung) [µM],TGI (NCI-H522 lung),GI50 (OVCAR-3 ovarian) [µM],TGI (OVCAR-3 ovarian),GI50 (RPMI-8226 leukemia) [µM],TGI (RPMI-8226 leukemia) [µM],GI50 (SF-539 CNS) [µM],TGI (SF-539 CNS),GI50 (SK-MEL-5 melanoma) [µM],TGI (SK-MEL-5 melanoma) [µM],GI50 (SN12C renal) [µM],TGI (SN12C renal) [µM],GI50 (UACC-257 melanoma) [µM],TGI (UACC-257 melanoma) [µM],GI50 (UO-31 renal) [µM],TGI (UO-31 renal) [µM]
CC1=NN(C(=O)c2ccccc2O)C(=O)/C1=C/c1ccc([N+](=O)[O-])cc1,0.895,> 100,0.654,4.77,2.03,7.06 µM and 12.9 µM,1.98,7.05 µM and 1.32 µM,0.784,> 100,0.476,2.57 µM and 2.52 µM,2.21,51.5,2.06,> 26.5,2.34,> 100,0.358,1.88
CC[P+](C)(Cc1ccccc1)c1ccccc1 (stereo not given),–,> 100,–,> 100,–,> 100 µM,–,> 100 µM,–,> 100,–,> 100 µM,–,> 100,–,> 100,–,> 100,–,> 100
COc1ccc(S(=O)(=O)NC(C)C(=O)O)cc1 (stereo not given),–,> 100,–,> 100,–,> 100 µM,–,> 100 µM,–,> 100,–,> 100 µM,–,> 100,–,> 100,–,> 100,–,> 100
O=C(/C=C/c1ccc(B(O)O)cc1)/C=C/c1ccc(B(O)O)cc1,6.3,20.9,2.85,8.69,4.07,15.7 µM,3.11,9.27 µM,2.51,8.21,2.03,5.35 µM,1.94,4.47,3.22,13.9,3.4,13.3,1.91,4.73
COc1cc(/C(Cl)=C/C=C/C(=O)c2c(C)[n+]([O-])c3ccc(Cl)cc3[n+]2[O-])cc(OC)c1OC,6.35,18.5,9.36,44.6,1.38,4.23 µM,2.39,10 µM,2.18,> 50,3.67,> 50 µM,9.44,> 50,9.1,> 50,16.6,> 50,2.63,18.7
COc1cc(CCc2cccnc2)cc(OC)c1OC,–,> 100,–,> 100,–,> 100 µM,–,> 100 µM,–,> 100,–,> 100 µM,–,> 100,–,> 100,–,> 100,–,> 100
Cc1cccc(C(=O)c2cccc3ccccc23)c1C(=O)O,–,> 100,–,> 100,–,> 100 µM,–,> 100 µM,–,> 100,–,> 100 µM,–,> 100,–,> 100,–,> 100,–,> 100
CC1=C(C(=O)NCc2ccccc2)C(c2ccc(C3C(C(=O)NCc4ccccc4)=C(C)NC(C)=C3C(=O)NCc3ccccc3)cc2)C(C(=O)NCc2ccccc2)=C(C)N1,–,36.3,–,33.1,–,10.1 µM,–,22.9 µM,–,> 100,–,5.52 µM,–,30.9,–,20.5,–,32.5,–,35.7
